Test results published in US20180252712A1, “RECEPTOR FOR NOROVIRUS AND USES THEREOF” (priority 2017, published 2018).

Experiments:
MNoV^CW3 [1] = experiment: CRISPR screen in BV2-Cas9 cells, sgRNA enrichment after MNoV^CW3 infection; type: cell-based, murine norovirus; conditions: for log2 fold enrichment after MNV infection relative to mock infected cells, CW3 MOI 0.05: MNoV^CW3, MOI 0.05, ten days post-infection; for log2 fold enrichment after MNV infection relative to mock infected cells, CW3 MOI 5: MNoV^CW3, MOI 5, ten days post-infection
Method: (§1) BV2 cells were transduced with pXPR_101 (Addgene plasmid 52962) and selected with blasticidin for eleven days. Cas9 activity was assessed by transducing parental BV2 or BV2-Cas9 cells with pXPR_011 (Addgene plasmid 59702), expresses eGFP and a sgRNA targeting eGFP at an MOI<1 [1]. Cells were transduced for 2 days and subsequently, selected for five days with puromycin and the frequency of eGFP expression was assessed by flow cytometry. The mouse ASIAGO sgRNA CRISPR library contains six independent genome wide pools which each pool containing a unique sgRNA targeting each of 20,077 mouse genes. Four ASIAGO pools were independently used to generate the BV2 library (Doench et al submitted). Each ASIAGO pool was delivered by lentiviral transduction of 5×10^7 BV2 cells at an MOI ˜0.2. This equates to 1×10^7 transduced cells, which is sufficient for the integration of each sgRNA 500 independent times. Two days post transduction, puromycin was added to the media and transduced cells were selected for five days. For each experimental condition, 1×10^7 BV2-Cas9 cells containing sgRNAs were seeded in a T175 tissue culture flask. Cells were infected with either MNoV^CW3 or MNoV^CR6 at MOls of 0.05 and 5. Mock infected cells were harvested 48 hrs after seeding and served as a reference for sgRNA enrichment analysis. Ten days post-infection genomic DNA was isolated from surviving cells using a Qiamp DNA mini kit according to manufacturer instructions (Qiagen).
(§2) Illumina sequencing and STARS analysis was performed as described previously (Doench et al, in press). Briefly, genomic DNA was aliquoted into multiple wells of a 96-well plate with up to 10 μg of DNA in 50 μl total volume. A PCR mastermix consisting of ExTaq DNA polymerase (Clontech), ExTaq buffer, dNTP, P5 stagger primer, and water was generated. 40 μl of PCR master mix, and 10 μl of a barcoded primer was added to each well containing 50 μl of DNA. Samples were PCR amplified as follows: 95° C. for 1 min., followed by 28 cycles of 94° C. for 30 sec., 52.5° C. for 30 sec., 72° C. for 30 sec. with a final 10 min. at 72° C. PCR product was purified with Agencourt AMPure XP SPRI beads according to the manufacture's protocol (Beckman Coluter). Samples were sequenced on an Illumina HiSeq 2000. Barcodes in the P7 primer were deconvuluted and the sgRNA sequence was mapped to a reference file of sgRNAs in the ASIAGO library. To normalize for different numbers of reads per condition, read counts per sgRNA were normalized to 10^7 total reads per sample. This normalized value was then log-2 transformed. sgRNAs that were not sequenced were arbitrarily assigned a read count of 1. sgRNA frequencies were then analyzed using STARS software, which is available at broadinstitute.org/rnai/public/software/index (Doench et al, in press). STARS computes a score for each gene of rank-ordered sgRNA hits that was above […] of total sequenced sgRNAs. A STAR score was only assigned to genes that scored above this threshold in at least two of four independent genome wide pools.

MNoV^CR6 = experiment: CRISPR screen in BV2-Cas9 cells, sgRNA enrichment after MNoV^CR6 infection; type: cell-based, murine norovirus; conditions: for log2 fold enrichment after MNV infection relative to mock infected cells, CR6 MOI 0.05: MNoV^CR6, MOI 0.05, ten days post-infection; for log2 fold enrichment after MNV infection relative to mock infected cells, CR6 MOI 5: MNoV^CR6, MOI 5, ten days post-infection
Method: as §1, §2

MNoV^CW3 [2] = experiment: MNoV binding assay to BV2 cells (bound genomes by qPCR); type: cell-based, murine norovirus
Method: MNoV^CW3 quantitiatve PCR (qPCR) was performed as previously described. Briefly, 5 μl of extracted viral RNA was used for cDNA synthesis using random hexamers and ImProm Reverse Transcriptase (Promega, Madison, Wis.) in 20 μl total volume. TaqMan qPCR was performed in triplicate on each sample and standard with forward primer SEQ ID NO:20 (5′ […] 3′), reverse primer SEQ ID NO:21 (5′ GCGCTGCGCCATCACTC 3′), and probe.
MNoV^CW3 binding to BV2 cells was performed for 1 hour at 4° C. in 0.5 ml complete growth media. sCD300lf was incubated with MNoV^CW3 for 30 minutes at room temperature prior to addition to cells. α-CD300lf was incubated with cells for 30 minutes at 4° C. prior to the addition of MNoV^CW3. BV2 cells were used at final concentration of 2×10^6 cells/ml, and MNoV^CW3 was used at a final concentration of 1.6×10^9 copies/ml (2.5×10^6 PFU/ml). Cells were centrifuged at 500 g for 5 min at 4° C. to remove unbound virus. Cells were washed with four 1.0 ml washes with PBS containing 2.5% FBS and 2 mM EDTA. The cell pellet was resuspended in 100 μl PBS, and RNA was extracted with the ZR Viral RNA kit (Zymo Research) according to manufacturer instructions. qPCR was performed as described above. Binding experiments were done in triplicate in each of at least three independent experiments. A condition containing virus but no cells was used to determine assay background.
To determine the effect of glycans on MNoV binding, parental BV2 cells, ΔCD300lf BV2 clone 1 cells complemented with an empty lentivirus, and ΔCD300lf BV2 clone 1 cells complemented with CD300lf were cultured in the presence of 1 μg/ml of kifunensine (Santa Cruz Biotechnology) for at least 48 hours prior to use. Kifunensine activity was determined by staining cells with FITC-conjugated wheat germ agglutinin (WGA) at 1 μg/ml final concentration (Sigma Aldrich). The reduction in glycosylation was determined by comparing the mean fluorescence intensity (MFI) with and without kifunensine treatment. WGA binding was determined at the time of each binding assay.

MNoV^CW3 [3] = experiment: Challenge of STAT1−/− mice with preincubated MNoV^CW3, survival; type: in vivo, murine norovirus; conditions: PO 10^3 or 10^5 PFU MNoV^CW3 preincubated at 10 μg/ml, 28 days
Method: B6.129S(Cg)-Stat1^tm1Div/J (STAT1^−/−) mice and C57BL/6J (Jackson Laboratories, Bar Harbor, Me.) and Fut2^−/− (B6.129X1-Fut2^tm1Sdo/J) mice (a generous gift from Dr. Alexander V. Chervonsky) were housed in a specific-pathogen free environment at Washington University. The care and use of all animals was approved by and in accordance with the Washington University Animal Studies Committee. For the challenge of STAT^−/− mice, MNoV^CW3 was incubated with sCD300lf or WNV E DIII at a final concentration of 10 μg/ml for 30 minutes at room temperature. STAT1^−/− mice were challenged with 25 μl PO of 10^3 or 10^5 PFU of MNoV^CW3 diluted in D10. STAT1^−/− mice were singly housed immediately after inoculation and monitored daily for survival for 28 days. Experiments were performed three independent times with gender-balanced littermate controls at both 10^3 and 10^5 PFU challenge doses.

MNoV^CW3 [4] = experiment: BMDM infection, FACS for intracellular MNoV NS1/2 expression; type: cell-based, murine norovirus; conditions: virus preincubated with sCD300lf or cells treated with α-CD300lf; MOI 5.0
Method: BL6 myeloid progenitors were obtained from mice (FIG. 2E) or from HoxB8-immortalized progenitors (FIG. 2D) as previously described.HoxB8-immortalized progenitors were maintained in RPMI 1640 supplemented with 1 μM β-estradiol and 25 ng/ml GM-CSF. Progenitors were differentiated into macrophages by washing the cells in PBS and plating 1×10^6 cells into BMDM media (Dulbeco's Modified Eagle Medium, 10% fetal bovine serum, 5% horse serum, 10% CMG14-12 [6], 1 mM sodium pyruvate, 2 mM L-glutamine). After 7 days of differentiation, macrophages were dissociated and 5×10^6 cells/well were seeded into a 6-well dish. Three days later, MNoV^CW3 was added to cells at an MOI of 5.0. One day post infection, MNoV NS1/2 expression was detected by flow cytometry.
Infected cells were fixed and permeabilized with Cytofix/Cytoperm (BD biosciences) Rabbit polyclonal antibody targeting the MNoV nonstructural protein NS1/2 antibody was added at a 1:5000 dilution (Gift from Vernon Ward). Cells were incubated for 30 min. at room temperature. Cells were then washed and DyLight 649 donkey anti-rabbit IgG was added and incubated for 30 min. Cells were then washed and analyzed on an LSRII flow cytometer (BD). At least 20,000 events were collected per condition. Each experiment was performed in triplicate in each of three independent experiments.

MNoV^CW3 [5] = experiment: MNoV neutralization with α-CD300lf and sCD300lf (cytotoxicity, CellTiter-Glo); type: cell-based, murine norovirus; conditions: virus preincubated with protein, 0.01 to 10 μg/ml; 24 hours post-infection
Method: MNoV neutralization was assessed by measuring cytotoxicity. 2.5×10^4 BV2 cells were plated per well of a 96-well plate. For antibody-mediated neutralization, cells were then incubated for 1 hour at 37° C. with polyclonal α-CD300lf (R&D systems AF2788) or an isotype control (R&D systems AB-108-C) at a final concentration from 0.01 to 10 μg/ml. MNoV^CW3 was then added at an MOI of 5 in a total volume of 100 μl. After 24 hours at 37° C., 25 μl of CellTiter-Glo (Promega) was added per well to measure cellular ATP concentrations. For sCD300lf neutralization, the assay was performed similarly except that 1.25×10^5 PFU of MNoV^CW3 was incubated with sCD300lf or a control protein (Domain III of West Nile Virus Envelope) at a final concentration from 0.01 μg to 10 μg/ml prior to addition of BV2 cells. Relative luminescence units were detected on Molecular Devices SpectraMax M2 plate reader. All conditions were normalized to an uninfected control. Each condition was done in quadruplicate in each of three independent experiments.

MNoV^CW3 [6] = experiment: Spleen-derived MNoV neutralization (plaque assay); type: cell-based, murine norovirus; conditions: 75 PFU spleen-derived or BV2-derived virus, 10 μg/ml, 30 min preincubation
Method: BV2 cells were seeded at 1×10^6 cells/well of a six-well plate. 16-24 hours later, media was removed and 10-fold dilutions of cell lysate is applied to each well for 1 hour with gentle rocking. Viral inoculum was removed and 2 ml of overlay media was added (MEM, 10% FBS, 2 mM L-Gluatmine, 10 mM HEPES, and 1% methylcellulose). Plates were incubated for 2-3 days prior to visualization with crystal violet solution (0.2% crystal violet and 20% ethanol).
To isolate in vivo derived MNoV^CW3, five 7-8 week old C57BL/6J were inoculated PO with 10^6 PFU MNoV^CW3 in 25 μl PBS. Three days post inoculation, mice were sacrificed and spleens were harvested. Spleens were processed by bead beating with 1 mm silica beads (Biospec, Bartlesville, Okla.) for 1 minute. The spleen extract was centrifuged for 5 minutes at 3,000 g, the supernatant was filtered through a 0.22 μm filter, frozen at −80° C., and titered on BV2 cells as described previously.
75 PFU of either BV2 cell-derived or spleen-derived MNoV^CW3 was incubated for 30 min. at room temperature with either sCD300lf or WNV E DIII at 10 μg/ml final concentration in 100 μl total volume of D10. Each sample was then added to a confluent monolayer of BV2 cells in a 6-well plate and incubated for 1 hr. at room temperature. […] Complete media containing methylcellulose was then added and plaque formation was assessed as described previously. […]

In the case of “TAGAGCAGAGAACTGCCACA: sgRNA used in screen, matches CD300ld (listed as DNA, chemistry not given here)”, the “log2 fold enrichment after MNV infection relative to mock infected cells, CW3 MOI 0.05” value (MNoV^CW3 [1]) is reported as −6.7 log2 fold enrichment, the “log2 fold enrichment after MNV infection relative to mock infected cells, CW3 MOI 5” value (MNoV^CW3 [1]) is reported as −6.7 log2 fold enrichment and the “log2 fold enrichment after MNV infection relative to mock infected cells, CR6 MOI 0.05” value (MNoV^CR6) is reported as −6.7 log2 fold enrichment. The “log2 fold enrichment after MNV infection relative to mock infected cells, CR6 MOI 5” value (MNoV^CR6) was −6.7 log2 fold enrichment.

For “TCAGAGAAAGAAACGAAGAG: sgRNA used in screen, matches CD300lb (listed as DNA, chemistry not given here)”, the “log2 fold enrichment after MNV infection relative to mock infected cells, CW3 MOI 0.05” value (MNoV^CW3 [1]) was −5.5 log2 fold enrichment, the “log2 fold enrichment after MNV infection relative to mock infected cells, CW3 MOI 5” value (MNoV^CW3 [1]) was −5.5 log2 fold enrichment and the “log2 fold enrichment after MNV infection relative to mock infected cells, CR6 MOI 0.05” value (MNoV^CR6) was −5.5 log2 fold enrichment. The “log2 fold enrichment after MNV infection relative to mock infected cells, CR6 MOI 5” value (MNoV^CR6) was −5.5 log2 fold enrichment.

In the case of “TGTCACTGTGAAGATGGTGG: sgRNA used in screen, matches CD300lf (listed as DNA, chemistry not given here)”, the “log2 fold enrichment after MNV infection relative to mock infected cells, CW3 MOI 0.05” value (MNoV^CW3 [1]) is reported as 8.4 log2 fold enrichment, the “log2 fold enrichment after MNV infection relative to mock infected cells, CW3 MOI 5” value (MNoV^CW3 [1]) is reported as 13.3^B log2 fold enrichment and the “log2 fold enrichment after MNV infection relative to mock infected cells, CR6 MOI 0.05” value (MNoV^CR6) is reported as 7.2 log2 fold enrichment. For the same molecule, the “log2 fold enrichment after MNV infection relative to mock infected cells, CR6 MOI 5” value (MNoV^CR6) was −1.9 log2 fold enrichment.

B1: sCD300lf: recombinant, soluble ectodomain of mouse CD300lf (residues 20-128 of GenBank AAH57864.1), expressed in E. coli and refolded (protein)
chain: MEDPVTGPEEVSGQEQGSLTVQCRYTSGWKDYKKYWCQGVPQRSCKTLVETDASEQLVKKNRVSIRDNQRDFIFTVTMEDLRMSDAGIYWCGITKGGLDPMFKVTVNIGP
B1 was tested, and the “MNoV^CW3 binding to BV2ΔCD300lf cells” value (MNoV^CW3 [2]; BV2ΔCD300lf cells, cells treated with α-CD300lf or virus premixed with sCD300lf) was “not further inhibited”, the “MNoV^CW3 binding to BV2 cells” value (MNoV^CW3 [2]; wild type BV2 cells, cells treated with α-CD300lf or virus preincubated with sCD300lf, 1 hour at 4° C.) was “reduced MNoV binding” and the “Protection from MNoV induced lethality (survival)” value (MNoV^CW3 [3]) was “able to protect from MNoV induced lethality”. For the same molecule, the “MNoV^CW3 infection of primary bone marrow-derived macrophages (NS1/2 expression by FACS)” value (MNoV^CW3 [4]) was “inhibited”, the “MNoV^CW3-induced cytopathic effect in BV2 cells (cell viability)” value (MNoV^CW3 [5]) was “neutralized MNoV^CW3-induced cytopathic effect” and the “Neutralization of MNoV isolated from spleens of MNoV^CW3-infected mice (plaque assay)” value (MNoV^CW3 [6]) was “remained sensitive to sCD300lf inhibition”.
